We go through four compounds from ChEMBL document CHEMBL5370695, “Novel Adenosine Receptor Antagonists for Treating Cancer and Immune-Related Disorders” (ACS Med Chem Lett, 2023).

pIC50: −log10 of the molar value.

The target in test [1] is T1, Adenosine receptor A2b (Homo sapiens, UniProt P29275).
T1 sequence (P29275 whole entry): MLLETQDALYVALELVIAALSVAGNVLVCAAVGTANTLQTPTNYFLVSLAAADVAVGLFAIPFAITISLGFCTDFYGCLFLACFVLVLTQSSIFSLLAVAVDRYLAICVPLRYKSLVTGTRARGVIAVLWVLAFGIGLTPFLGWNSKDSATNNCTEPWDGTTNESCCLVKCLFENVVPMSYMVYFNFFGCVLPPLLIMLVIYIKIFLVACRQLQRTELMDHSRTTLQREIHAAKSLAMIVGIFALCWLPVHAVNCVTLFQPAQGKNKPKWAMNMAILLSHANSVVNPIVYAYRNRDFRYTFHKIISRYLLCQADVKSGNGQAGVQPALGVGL
The experiment in a line: Binding affinity to recombinant human adenosine A2B receptor expressed in HEK293 cell membrane incubated for 15 to 30 mins by Topcount scintillation counter assay. The format is cell membranes.

In test [2] the target is Adenosine receptor A2a (Homo sapiens, UniProt P29274). The experiment in a line: Displacement of [3H]-SCH58261 from recombinant human adenosine A2A receptor expressed in HEK293 cell membrane incubated for 15 to 30 mins by Topcount scintillation counter assay. The format is cell membranes.
Adenosine receptor A2a, sequence (P29274 whole entry): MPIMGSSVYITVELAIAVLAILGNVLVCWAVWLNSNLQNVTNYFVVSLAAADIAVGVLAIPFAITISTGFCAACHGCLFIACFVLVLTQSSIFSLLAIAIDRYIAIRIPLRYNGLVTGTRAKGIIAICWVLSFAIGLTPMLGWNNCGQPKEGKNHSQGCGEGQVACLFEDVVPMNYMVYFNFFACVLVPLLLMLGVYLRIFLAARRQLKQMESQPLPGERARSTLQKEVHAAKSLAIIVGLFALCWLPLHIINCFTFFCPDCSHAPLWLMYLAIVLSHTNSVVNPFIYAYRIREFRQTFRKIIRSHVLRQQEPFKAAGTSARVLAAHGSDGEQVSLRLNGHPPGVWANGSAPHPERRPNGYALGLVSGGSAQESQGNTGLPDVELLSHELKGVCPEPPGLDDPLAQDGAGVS

One may read the pIC50 as the negative decadic logarithm of the IC50, by convention in mol/L. Consider `COc1cccc2c1nc(N)n1nc(C3CC3c3ccc4c(c3)CCNC4)nc21` (stereo unspecified), for which the pIC50 was 8.51 in test [1] and 8.96 in test [2].
For the compound `COc1cccc2c1nc(N)n1nc([C@H]3C[C@H](c4ncc(C(C)(C)N)cc4Cl)C3)nc21`, the pIC50 in test [1] was 8.57; in test [2] it was 9.10.
In the case of `COc1cccc2c1nc(N)n1nc([C@H]3C[C@H](c4ncc(C(C)(C)N)cc4C)C3)nc21`, in test [1], the pIC50 is 8.80.
For `COc1cccc2c1nc(N)n1nc([C@H]3C[C@H](c4ccc(C(C)(C)O)cn4)C3)nc21`, the pIC50 in test [1] was 8.48.
